According to patent US20250257034A1, “INDOLE DERIVATIVES AS SEROTONERGIC AGENTS USEFUL FOR THE TREATMENT OF DISORDERS RELATED THERETO” (priority 2023, published 2025):

Legend:
[1] = Mouse liver microsomes stability; assay type: in vitro ADME; conditions: mouse liver microsomes; for microsomal CLint at 2 μM / half-life at 2 μM / CLint scaled at 2 μM: male, pooled liver microsomes; for microsomal CLint at 2 μM: mouse, read-out: CLint (μL/min/mg protein); for microsomal CLint at 2 μM / half-life at 2 μM: 2 μM compound, 0.5 mg/mL; for CLint scaled at 2 μM: read-out: Scaled-up CLint
Method: (§1) The objective of this study was to estimate in vitro metabolic stability of exemplary compounds of Formula (I) or a pharmaceutically acceptable salt, solvate, and/or prodrug thereof in pooled human, male rat, and male mouse liver microsomes. The concentrations of compounds in reaction systems were evaluated by LC-MS/MS for estimating the stability in pooled human, male rat, and male mouse liver microsomes. The in vitro intrinsic clearances of test compounds were determined as well.
(§2) A master solution in the “Incubation Plate” containing phosphate buffer, ultra-pure H2O, MgCl2 solution and liver microsomes was made according to Table 33. The mixture was pre-warmed at 37° C. water bath for 5 minutes.
(§3) 40 μL of 10 mM nicotinamide adenine dinucleotide phosphate (NADPH) solution was added to each well. The final concentration of NADPH was 1 mM. The negative control samples were prepared by replacing NADPH with 40 μL of ultra-pure H2O. Samples were prepared in duplicate. Negative controls were prepared in singlet.
(§4) The reaction was started with the addition of 4 μL of 200 μM exemplary test compounds of the disclosure or control compounds to each master solution to get the final concentration of 2 μM. This study was performed in duplicate.
(§5) Aliquots of 50 μL were taken from the reaction solution at 0, 15, 30, 45, and 60 minutes. The reaction solutions were stopped by the addition of 4 volumes of cold methanol with IS (100 nM alprazolam, 200 nM imipramine, 200 nM labet alol and 2 μM ketoprofen). Samples were centrifuged at 3,220 g for 40 minutes. Aliquot of 90 μL of the supernatant was mixed with 90 μL of ultra-pure H2O and then was used for LC-MS/MS analysis.
(§6) LC/MS analysis was performed for all samples from this study using a Shimadzu liquid chromatograph separation system equipped with degasser DGU-20A5R; solvent delivery unit LC-30AD; system controller SIL-30AC; column oven CTO-30A; CTC Analytics HTC PAL System. Mass spectrometric analysis was performed using a Triple Quad™ 5500 instrument.
(§7) All calculations were carried out using Microsoft Excel. Peak area ratios of test compound to internal standard (listed in the below table) were determined from extracted ion chromatograms.
(§8) All calculations were carried out using Microsoft Excel. Peak areas were determined from extracted ion chromatograms. The slope value, k, was determined by linear regression of the natural logarithm of the remaining percentage of the parent drug vs. incubation time curve.
(§9) The in vitro half-life (in vitro t1/2) was determined from the slope value:
(§10) Conversion of the in vitro t1/2(min) into the in vitro intrinsic clearance (in vitro CLint, in μL/min/mg proteins) was done using the following equation (mean of duplicate determinations): […]
(§11) A master solution in the “Incubation Plate” containing phosphate buffer, ultra-pure H2O, MgCl2 solution and liver microsomes was made according to Table 63. The mixture was pre-warmed at 37° C. water bath for 5 minutes.
(§12) 40 μL of 10 mM NADPH solution was added to each well. The final concentration of NADPH was 1 mM. The negative control samples were prepared by replacing NADPH with 40 μL of ultra-pure H2O. Samples were prepared in duplicate. Negative controls were prepared in singlet.
(§13) Conversion of the in vitro t1/2(min) into the in vitro intrinsic clearance (in vitro C Lt, in μL/min/mg proteins) was done using the following equation (mean of duplicate determinations): […]

[2] = Human liver microsomes stability; assay type: in vitro ADME; conditions: human liver microsomes; for half-life at 2 μM / microsomal CLint at 2 μM: 2 μM compound, 0.5 mg/mL; for microsomal CLint at 2 μM: read-out: CLint (μL/min/mg protein); for CLint scaled at 2 μM: read-out: Scaled-up CLint
Method: as §1, §2, §3, §4, §5, §6, §7, §8, §9, §10, §11, §12, §13

SMILES	microsomal CLint at 2 μM [1]	half-life at 2 μM [1]	CLint scaled at 2 μM [1]	Predicted hepatic CL [1]	Remaining Percentage (%) ([1]; With Cofactors, 0 min)	Remaining Percentage (%) ([1]; With Cofactors, 30 min)	Remaining Percentage (%) ([1]; With Cofactors, 60 min)	Remaining Percentage (%) ([1]; Without Cofactors, 0 min)	Remaining Percentage (%) ([1]; Without Cofactors, 30 min)	Remaining Percentage (%) ([1]; Without Cofactors, 60 min)	Predicted hepatic CL [2]	half-life at 2 μM [2]	microsomal CLint at 2 μM [2]	Remaining Percentage (%) ([2]; With Cofactors, 0 min)	Remaining Percentage (%) ([2]; With Cofactors, 30 min)	Remaining Percentage (%) ([2]; With Cofactors, 60 min)	Remaining Percentage (%) ([2]; Without Cofactors, 0 min)	Remaining Percentage (%) ([2]; Without Cofactors, 30 min)	Remaining Percentage (%) ([2]; Without Cofactors, 60 min)	CLint scaled at 2 μM [2]
COc1ccc2[nH]cc(CCN3CC[C@@H](OC)C3)c2c1 [(R) I-66, (R)-5-methoxy-3-(2-(3-methoxypyrrolidin-1-yl)ethyl)-1H-indole]	14.1 µL/min/mg	98.5 min	61.5 mL/min/kg	36.55 mL/min/kg	100.00%	72.95%	65.58%	100.00%	104.20%	100.00%	4.37 mL/min/kg	314 min	4.42 µL/min/mg	100.00%	98.13%	87.59%	100.00%	100.00%	98.15%	5.54 mL/min/kg
COc1ccc2[nH]cc(CCN3CC[C@@H](OC(F)F)C3)c2c1 [(R) I-67, (R)-3-(2-(3-(Difluoromethoxy)pyrrolidin-1-yl)ethyl)-5-methoxy-1H-indole]	57.4 µL/min/mg	24.1 min	251 mL/min/kg	66.25 mL/min/kg	100.00%	43.11%	17.88%	100.00%	103.14%	109.43%	15.34 mL/min/kg	29.3 min	47.3 µL/min/mg	100.00%	47.22%	24.23%	100.00%	79.21%	71.91%	59.3 mL/min/kg
CN(CCOC(F)F)CCc1c[nH]c2ccccc12 [Compound I-130, N-(2-(1H-Indol-3-yl)ethyl)-2-(difluoromethoxy)-N-methylethan-1-amine]	173 µL/min/mg	8.03 min	755 mL/min/kg	80.41 mL/min/kg	100.00%	7.52%	0.87%	100.00%	95.65%	104.89%	18.58 mL/min/kg	9.6 min	144 µL/min/mg	100.00%	11.46%	0.75%	100.00%	99.47%	94.15%	181 mL/min/kg
